Some test systems named below: IGROV1 ovarian; KM20L2 colon; SK-OV-3 ovarian; DLD-1 colon; SW-620 colon; NCI-H522 lung; HCT-116 colon; UO-31 renal; A498 renal; SF-295 CNS; COLO 205 colon; M14 melanoma; CCRF-CEM leukemia; K-562 leukemia; HOP-62 NSCLC; NCI-H23 lung; EKVX NSCLC; RXF 393 renal; CAKI-1 renal.
What all share (assay): NCI anticancer screen, dose series, 48 h

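Method: 48-hour compound exposure of cells in 96-well plates, five concentrations, linear interpolation of endpoints. TGI is the concentration that stops growth completely.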

On to `COc1cccc(C=O)c1[O-].COc1cccc(C=O)c1[O-].[Zn+2]`, for which the TGI in the test with IGROV1 ovarian, in the test with KM20L2 colon, in the test on SK-OV-3 ovarian, in the test on DLD-1 colon, in the test on SW-620 colon and in the test on NCI-H522 lung was greater than 100 µM throughout. Further, the TGI is greater than 100 µM in the test with HCT-116 colon; 90.7 µM in the test on UO-31 renal; greater than 100 µM with A498 renal; 68.1 µM with SF-295 CNS; greater than 100 µM in the test with COLO 205 colon; greater than 100 µM with M14 melanoma. Also, the TGI in the test with CCRF-CEM leukemia, in the test with K-562 leukemia, with HOP-62 NSCLC, with NCI-H23 lung, with EKVX NSCLC and in the test with RXF 393 renal was greater than 100 µM each time.
For the molecule `CCCCCCCC(=O)OC[C@H](C[As](=O)(O)O)OC(=O)CCCCCCC`, the TGI in the test with IGROV1 ovarian came to 14.4 µM; in the test on KM20L2 colon, 30.2 µM; in the test with SK-OV-3 ovarian it was 29 µM; in the test on DLD-1 colon, 28 µM; in the test on SW-620 colon, 20 µM; in the test on NCI-H522 lung it was 4.07 µM. Further, the TGI stood at 19.2 µM with HCT-116 colon; 16.5 µM in the test with UO-31 renal; 25.3 µM in the test on A498 renal; 27.5 µM in the test with SF-295 CNS; 30 µM with COLO 205 colon; 25.6 µM with M14 melanoma. In addition, the TGI is 8.8 µM with CCRF-CEM leukemia; 41.6 µM in the test on K-562 leukemia; 33.1 µM in the test with HOP-62 NSCLC; 28.2 µM in the test with NCI-H23 lung; 80.7 µM in the test with EKVX NSCLC; 16 µM with RXF 393 renal.
Consider `CN/N=C(\C)C(CN1CCCCC1)C(C1=C(O)c2ccccc2OC1)c1ccccc1` (configuration not stated), for which the TGI with IGROV1 ovarian, in the test with KM20L2 colon, in the test with SK-OV-3 ovarian, in the test on SW-620 colon, with NCI-H522 lung and in the test with HCT-116 colon was greater than 100 µM throughout. The TGI in the test with UO-31 renal, with SF-295 CNS, in the test on CAKI-1 renal, in the test on COLO 205 colon, in the test on M14 melanoma and in the test on CCRF-CEM leukemia was greater than 100 µM in each case. The TGI in the test on K-562 leukemia, with HOP-62 NSCLC, with NCI-H23 lung, in the test on EKVX NSCLC and with RXF 393 renal was greater than 100 µM in each case.
In the case of `C=CCCCN1CCCCC1=S`, the TGI with IGROV1 ovarian, in the test on KM20L2 colon, with SK-OV-3 ovarian, in the test on DLD-1 colon, in the test with SW-620 colon and with NCI-H522 lung was greater than 100 µM throughout. Also, the TGI with HCT-116 colon, with UO-31 renal, in the test with SF-295 CNS, in the test on COLO 205 colon, in the test on M14 melanoma and in the test with CCRF-CEM leukemia was greater than 100 µM throughout. Besides, the TGI in the test on K-562 leukemia, in the test with HOP-62 NSCLC, with NCI-H23 lung, in the test with EKVX NSCLC and with RXF 393 renal was greater than 100 µM throughout.
Regarding `CS(=O)(=O)NNS(=O)(=O)c1ccc(F)cc1`, the TGI with IGROV1 ovarian, with KM20L2 colon, in the test on DLD-1 colon, in the test with SW-620 colon, with NCI-H522 lung and in the test on HCT-116 colon was greater than 100 µM each time. Further, the TGI with UO-31 renal, with A498 renal, in the test on SF-295 CNS, in the test with CAKI-1 renal, in the test on COLO 205 colon and in the test on M14 melanoma was greater than 100 µM in each case. The TGI in the test with CCRF-CEM leukemia, in the test with K-562 leukemia, in the test on HOP-62 NSCLC, with NCI-H23 lung, in the test with EKVX NSCLC and with RXF 393 renal was greater than 100 µM throughout.
`Oc1ccc(C2Oc3cc(O)cc4c3C2c2cc(O)cc3c2C(c2cc(O)cc5c2C4C(c2ccc(O)cc2)O5)C(c2ccc(O)cc2)O3)cc1` (configuration not stated): the TGI with KM20L2 colon, in the test on DLD-1 colon, with SW-620 colon, with NCI-H522 lung, with HCT-116 colon and with UO-31 renal was greater than 25 µM each time. For the same molecule, the TGI with A498 renal, with CAKI-1 renal, in the test with COLO 205 colon, with M14 melanoma, in the test on CCRF-CEM leukemia and with K-562 leukemia was greater than 25 µM each time. In addition, the TGI is greater than 25 µM with HOP-62 NSCLC, 22.9 µM in the test with NCI-H23 lung and greater than 25 µM with EKVX NSCLC.
On to `COC(=O)N/N=C(\C)CC(=O)Nc1cccc([N+](=O)[O-])c1`, for which the TGI in the test on IGROV1 ovarian, with KM20L2 colon, in the test on SK-OV-3 ovarian, in the test with DLD-1 colon, with SW-620 colon and with NCI-H522 lung was greater than 100 µM in each case. Also, the TGI in the test on HCT-116 colon, in the test with UO-31 renal, with SF-295 CNS, in the test on COLO 205 colon, with M14 melanoma and with CCRF-CEM leukemia was greater than 100 µM throughout. In addition, the TGI in the test with K-562 leukemia, in the test with HOP-62 NSCLC, with NCI-H23 lung, with EKVX NSCLC and with RXF 393 renal was greater than 100 µM in each case.
For `O=C(CC1(O)C(=O)Nc2ccc([N+](=O)[O-])cc21)c1ccncc1` (configuration not stated), the TGI was greater than 100 µM with KM20L2 colon; greater than 100 µM with SK-OV-3 ovarian; greater than 100 µM with DLD-1 colon; 47.9 µM in the test with SW-620 colon; 71.5 µM in the test with NCI-H522 lung; greater than 100 µM with HCT-116 colon. Also, the TGI in the test on UO-31 renal, in the test with A498 renal, in the test on SF-295 CNS, with COLO 205 colon, in the test on M14 melanoma and in the test with CCRF-CEM leukemia was greater than 100 µM in each case. The TGI was 75.1 µM in the test with K-562 leukemia; greater than 100 µM in the test on HOP-62 NSCLC; 73.1 µM in the test with NCI-H23 lung; greater than 100 µM in the test on EKVX NSCLC; 64.4 µM in the test on RXF 393 renal.
